Reference: patent US12414952B2 (Merck Sharp & Dohme LLC, priority 2018, dated 2025)
pIC50: −log10 of the molar value.

Experiments:
[1] = molecular target: human A2a adenosine receptor (Homo sapiens (Human), UniProt P29274); assay: A2a binding affinity using radioligand binding, Method (A); settings: Method (A): [3H]SCH58261 filtration binding
Excerpt: The A2a receptor affinity binding assay measured the amount of binding of a tritiated ligand with high affinity for the A2a adenosine receptor to membranes made from HEK293 or CHO cells recombinantly expressing the human A2a adenosine receptor, in the presence of varying concentrations of a compound of the invention. The data were generated using either filtration binding or a homogenous scintillation proximity assay (SPA).
Method (A): Measurement of A2a Binding Affinity Using Radioligand Binding
148 μL (5 μg/mL) membranes (Perkin Elmer, Cat. No. RBHA2aM400UA) and 2 μL compounds of the invention to be tested (test compound) were transferred to individual wells of a 96-well polypropylene assay plate and incubated for 15 to 30 min at room temperature. [^3H] SCH58261 ((7-(2-phenylethyl)-5-amino-2-(2-furyl)-pyrazolo-[4,3-e]-1,2,4-triazolo[1,5-c]pyrimidine)) was diluted in assay buffer (50 mM Tris pH 7.4, 10 mM MgCl2, 0.005% Tween20) to a concentration of 4 nM and 50 μL transferred to each well of the assay plate. […] The assay plate was incubated at room temperature for 60 min with agitation. […] Filtering was achieved by aspirating the contents of the assay plate for 5 sec, then washing and aspirating the contents three times with ice-cooled wash buffer (50 mM Tris-HCl pH 7.4, 150 mM NaCl) and allowing the vacuum manifold to dry the plate for […]. The filter plate was incubated for at least 1 h at 55° C. and allowed to dry. The bottom of the filter plate was sealed with backing tape. […] The plate was incubated for at least 20 min, and then the amount of radioactivity remaining in each well was determined using a TopCount® (Perkin Elmer) scintillation counter. After normalization to total and non-specific binding, the percent effect at each compound concentration was calculated. The plot of percent effect versus the log of compound concentration was analyzed electronically using a 4-parameter logistic fit based on the Levenberg-Marquardt algorithm to generate IC50 values.

[2] = molecular target: human A2b adenosine receptor (Homo sapiens (Human), UniProt P29275); assay: A2b binding affinity, radioligand filtration binding assay; settings: tritiated proprietary A2b antagonist, HEK293 membranes
Protocol: Measurement of A2b Binding Affinity
The reported affinity of the compounds of the invention for the human A2b adenosine receptor was determined experimentally using a radioligand filtration binding assay. This assay measures the amount of binding of a tritiated proprietary A2b receptor antagonist, in the presence and absence of a compound of the invention, to membranes made from HEK293 cells recombinantly expressing the human A2b adenosine receptor (Perkin Elmer, Cat. No. ES-013-C).
The filter plate was incubated for at least 1 h at 55° C. and allowed to dry. The bottom of the filter plate was then sealed with backing tape. […] The plates were then incubated for at least 20 min, and then the amount of radioactivity remaining in each well was determined using a TopCount® (Perkin Elmer) scintillation counter. After normalization to total and non-specific binding, the percent effect at each compound concentration was calculated. The plot of percent effect versus the log of compound concentration was analyzed electronically using a 4-parameter logistic fit based on the Levenberg-Marquardt algorithm to generate IC50 values.

human A2b adenosine receptor, sequence (P29275 whole entry): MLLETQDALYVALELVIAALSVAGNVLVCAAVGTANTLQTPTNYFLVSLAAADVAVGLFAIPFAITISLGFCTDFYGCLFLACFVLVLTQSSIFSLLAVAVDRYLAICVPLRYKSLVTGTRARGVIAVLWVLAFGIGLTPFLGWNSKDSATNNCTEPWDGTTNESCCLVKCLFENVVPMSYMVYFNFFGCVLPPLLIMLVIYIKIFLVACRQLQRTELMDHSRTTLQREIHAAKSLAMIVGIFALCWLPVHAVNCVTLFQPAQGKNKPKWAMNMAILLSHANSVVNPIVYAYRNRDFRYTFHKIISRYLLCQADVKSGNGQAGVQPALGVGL
human A2a adenosine receptor, sequence (P29274 whole entry): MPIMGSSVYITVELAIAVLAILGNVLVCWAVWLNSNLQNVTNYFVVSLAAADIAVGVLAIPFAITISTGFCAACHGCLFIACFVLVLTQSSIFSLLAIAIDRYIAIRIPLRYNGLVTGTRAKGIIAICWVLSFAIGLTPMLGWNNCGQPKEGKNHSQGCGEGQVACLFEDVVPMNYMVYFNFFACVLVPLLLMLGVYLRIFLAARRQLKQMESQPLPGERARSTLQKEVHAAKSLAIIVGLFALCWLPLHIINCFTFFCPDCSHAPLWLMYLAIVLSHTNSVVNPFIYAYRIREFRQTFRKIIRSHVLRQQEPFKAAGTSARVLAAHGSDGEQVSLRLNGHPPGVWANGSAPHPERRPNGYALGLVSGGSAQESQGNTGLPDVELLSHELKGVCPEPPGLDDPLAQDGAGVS

pIC50 [1] | pIC50 [2] | SMILES
9.15 | 5.77 | Cc1c(-c2ncco2)nc(N)n2nc(CCN3Cc4nnn(C(C)C)c4C(C)C3)nc12 (single isomer, unassigned) [Example 17.8-1, (R or S)-2-(2-(1-isopropyl-7-methyl-1,4,6,7-tetrahydro-5H-[1,2,3]triazolo[4,5-c]pyridin-5-yl)ethyl)-8-methyl-7-(oxazol-2-yl)-[1,2,4]triazolo[1,5-c]pyrimidin-5-amine]
8.64 | 7.85 | Cc1c(-c2ncco2)nc(N)n2nc(CCN3Cc4nnn(C(C)C)c4C(C)C3)nc12 (single isomer, unassigned) [Example 17.8-2, (R or S)-2-(2-(1-isopropyl-7-methyl-1,4,6,7-tetrahydro-5H-[1,2,3]triazolo[4,5-c]pyridin-5-yl)ethyl)-8-methyl-7-(oxazol-2-yl)-[1,2,4]triazolo[1,5-c]pyrimidin-5-amine]
8.68 | 7.79 | Cc1c(-c2ncco2)nc(N)n2nc(CCN3CCn4c(cnc4C(C)C)C3)nc12 [Example 1.10]
8.44 | 7.25 | Cc1c(-c2ncco2)nc(N)n2nc(CCN3CCn4c(cnc4C4CCC4)C3)nc12 [Example 1.11]
8.32 | 6.66 | Cc1c(-c2ncco2)nc(N)n2nc(CCN3CCn4c(cnc4C4CC4)C3)nc12 [Example 1.12]
9.00 | 6.84 | Cc1c(-c2ncco2)nc(N)n2nc(CCN3CCc4c(cnn4C4CCC4)C3)nc12 [Example 1.13]
8.17 | 6.40 | Cc1c(-c2ncco2)nc(N)n2nc(CCN3CCc4nn(C5CCC5)cc4C3)nc12 [Example 1.14]
10.00 | 6.40 | Cc1c(-c2ncco2)nc(N)n2nc(CCN3CCc4c(nnn4C(C)C)C3)nc12 [Example 1.15]
9.52 | 6.95 | Cc1c(-c2ncco2)nc(N)n2nc(CCN3CCc4c(nnn4C4CC4)C3)nc12 [Example 1.16]
8.89 | 7.45 | Cc1c(-c2ncco2)nc(N)n2nc(CCN3CCc4c(nnn4CC(F)(F)F)C3)nc12 [Example 1.17]
7.74 | 6.16 | Cc1c(-c2ncco2)nc(N)n2nc(CCN3CCc4c(nnn4CC(C)(C)O)C3)nc12 [Example 1.18]
6.90 | 6.04 | CC(C)c1ncc2n1CCN(CCc1nc3cc(-c4ncco4)nc(N)n3n1)C2 [Example 1.19]
6.80 | 7.32 | Cc1c(-c2cccc(F)c2)nc(N)c2nc(CCN3CCn4c(cnc4C(C)C)C3)nn12 [Example 2.8]
6.20 | 6.61 | COc1c(F)cc(F)cc1-c1cc2nc(CCN3CCn4c(cnc4C(C)C)C3)nn2c(N)n1 [Example 2.9]
6.00 | 6.40 | CC(C)c1ncc2n1CCN(CCc1nc3cc(-c4cc(F)ccc4O)nc(N)n3n1)C2 [Example 2.10]
6.61 | 6.75 | CC(C)c1ncc2n1CCN(CCc1nc3cc(-c4cc(F)ccc4F)nc(N)n3n1)C2 [Example 2.11]
6.36 | 6.67 | CC(C)c1ncc2n1CCN(CCc1nc3cc(-c4cc(F)ccc4Cl)nc(N)n3n1)C2 [Example 2.12]
7.45 | 7.02 | CC(C)c1ncc2n1CCN(CCc1nc3cc(-c4cccc(F)c4)nc(N)n3n1)C2 [Example 2.13]
6.44 | 6.65 | CC(C)c1ncc2n1CCN(CCc1nc3cc(-c4cc(F)cc(F)c4)nc(N)n3n1)C2 [Example 2.14]
7.79 | 7.43 | Cc1c(-c2cccc(F)c2)nc(N)n2nc(CCN3CCn4c(cnc4C(C)C)C3)nc12 [Example 2.15]
8.64 | 7.13 | Cc1c(-c2cccc(F)c2)nc(N)n2nc(CCN3CCc4c(nnn4C(C)C)C3)nc12 [Example 2.16]
7.67 |  | Cc1c(-c2ncco2)nc(N)n2nc(CCc3ccc4c(c3)nnn4C3CC(F)(F)C3)nc12 [Example 22.3, 2-(2-(1-(3,3-Difluorocyclobutyl)-1H-benzo[d][1,2,3]triazol-5-yl)ethyl)-8-methyl-7-(oxazol-2-yl)-[1,2,4]triazolo[1,5-c]pyrimidin-5-amine]
